From paper PMC11025081, “Design, Synthesis, and In Silico and In Vitro Cytotoxic Activities of Novel Isoniazid–Hydrazone Analogues Linked to Fluorinated Sulfonate Esters” (ACS Omega, 2024)

Assays:
[1] = test system: human colon cancer cells (DLD-1); assay: MTT cytotoxic activity assay, DLD-1 cells, 72 h; type: cell-based; details: DLD-1 cell line
Description: (§1) Cancer treatment often damages healthy cells and tissues. Every treatment has important and diverse side effects; these depend mainly on the type and extent of treatment, are not the same for everyone, and may even vary from one treatment to another in the same person. While most cancer patients receiving chemotherapy lose hair during the treatment process, other side effects vary depending on the type of drug. Therefore, the discovery of new drugs with side effects lower than those of the chemotherapeutic agents used in treatment has become an important focus of cancer research. In the present study, the cytotoxic activities of new compounds (1–18) and cisplatin were tested in prostate and colon cancer cell lines and healthy embryonic kidney cell line for 72 h.
(§2) The PC3 and DLD-1 cell lines were purchased from the American Type Culture Collection. The PC3, DLD-1, and HEK-293T cells were seeded in 96-well plates at a density of 5 × 10^3 cells/well for cytotoxic activity studies.[36]−[38] Cells were exposed to compounds at concentrations of 300, 150, 75, and 37.5 μM after 24 h. The 50 μL (5 mg/mL) amount of MTT stock solution was added to wells after 72 h and incubated for a further 2 h. The absorbance values were measured by using an Epoch 2 ELISA plate reader at 590 nm.

[2] = test system: human prostate cancer cells (PC3); assay: MTT cytotoxic activity assay, PC3 cells, 72 h; type: cell-based
Description: as §1, §2

[3] = test system: human embryonic kidney cells (HEK-293T); assay: MTT cytotoxic activity assay, HEK-293T healthy cells, 72 h; type: cell-based; details: HEK-293T healthy cell line
Description: as §1
To determine whether all of the prepared substances had selectivity for healthy cells, the compounds were tested against HEK-293T cells at the same concentrations as those applied to cancer cells. […] Changes in the cell viability ratio depending on concentrations of the tested compounds (1–18) and cisplatin are given below (Figure 3).
as §2

[4] = Homo sapiens, PC-3, PC3 cell line

Row | melting point | Compound | IC50 ([1]; Homo sapiens) | IC50 [2, 4] | IC50 [3] | IC50 [1] | IC50 ([2]; PC3 cell line)
1 | 141 to 142 °C | CCN(CC)c1ccc(C=NNC(=O)c2ccncc2)c(OS(=O)(=O)c2ccc(C(F)(F)F)cc2)c1 [Compound 17] | 110 ± 5.09 µM | 57.6 ± 1.83 µM | 132 ± 5.46 µM |  | 
2 | 198 to 199 °C | COc1cccc(C=NNC(=O)c2ccncc2)c1OS(=O)(=O)c1ccc(C(F)(F)F)cc1 [Compound 13] | 78.8 ± 3.15 µM | 214 ± 6.48 µM | > 300 µM |  | 
3 |  | O=C(NN=Cc1ccccc1OS(=O)(=O)c1ccc(C(F)(F)F)cc1)c1ccncc1 [Compound 10] | 17.9 ± 0.51 µM | 139 ± 5.82 µM | 52.2 ± 3.52 µM |  | 
4 | 83 to 84 °C | O=Cc1ccccc1OS(=O)(=O)c1ccc(C(F)(F)F)cc1 [Compound 1] | 22.5 ± 2.6 µM | 14.3 ± 1.87 µM | 19.5 ± 1.57 µM |  | 
5 | 208 to 209 °C | O=C(N/N=C/c1ccc(OS(=O)(=O)c2ccc(C(F)(F)F)cc2)cc1)c1ccncc1 [Compound 12] | > 300 µM | > 300 µM | > 300 µM |  | 
6 | 180 to 181 °C | COc1ccc(C=NNC(=O)c2ccncc2)c(OS(=O)(=O)c2ccc(C(F)(F)F)cc2)c1 [Compound 14] | 28.4 ± 2.81 µM | 16.5 ± 1.54 µM | 26.6 ± 2.62 µM |  | 
7 | 110 to 111 °C | O=Cc1ccc(OS(=O)(=O)c2ccc(C(F)(F)F)cc2)cc1 [Compound 3] | 115 ± 5.78 µM | 76.6 ± 3.55 µM | 89.26 ± 0.17 µM |  | 
8 | 112 to 113 °C | COc1cc(C=O)ccc1OS(=O)(=O)c1ccc(C(F)(F)F)cc1 [Compound 7] | 74 ± 4.34 µM | 71.6 ± 3.46 µM | 110 ± 5.97 µM |  | 
9 | 129 to 131 °C | O=Cc1c(OS(=O)(=O)c2ccc(C(F)(F)F)cc2)ccc2ccccc12 [Compound 9] | 17.6 ± 0.62 µM | 14.8 ± 1.03 µM | 34.7 ± 2.21 µM |  | 
10 | 192 to 193 °C | COc1cc(C=NNC(=O)c2ccncc2)ccc1OS(=O)(=O)c1ccc(C(F)(F)F)cc1 [Compound 16] | 72.8 ± 3.13 µM | 121 ± 5.71 µM | 183 ± 2.72 µM |  | 
11 |  | O=C(NN=Cc1c(OS(=O)(=O)c2ccc(C(F)(F)F)cc2)ccc2ccccc12)c1ccncc1 [Compound 18] | 37.4 ± 4.63 µM | 17.05 ± 0.09 µM | 15.75 ± 0.11 µM |  | 
12 | 114 to 116 °C | CCN(CC)c1ccc(C=O)c(OS(=O)(=O)c2ccc(C(F)(F)F)cc2)c1 [Compound 8] | 24.7 ± 1.9 µM | 28.8 ± 1.85 µM | 40.8 ± 5.68 µM |  | 
13 | 79 to 80 °C | O=Cc1cccc(OS(=O)(=O)c2ccc(C(F)(F)F)cc2)c1 [Compound 2] | 41.2 ± 3.94 µM | 24.5 ± 2.09 µM | 60 ± 4.81 µM |  | 
14 |  | COc1ccc(C=O)c(OS(=O)(=O)c2ccc(C(F)(F)F)cc2)c1 [Compound 5] | 19.3 ± 2.71 µM | 11.2 ± 0.94 µM | 38.6 ± 2.81 µM |  | 
15 |  | COc1ccc(C=NNC(=O)c2ccncc2)cc1OS(=O)(=O)c1ccc(C(F)(F)F)cc1 [Compound 15] | 63.8 ± 5.32 µM | 97.4 ± 4.85 µM | 166 ± 6.71 µM |  | 
16 |  | COc1cccc(C=O)c1OS(=O)(=O)c1ccc(C(F)(F)F)cc1 [Compound 4] | 13.5 ± 1.64 µM | 10.3 ± 0.8 µM | 35.3 ± 1.15 µM |  | 
17 | 189 to 190 °C | O=C(NN=Cc1cccc(OS(=O)(=O)c2ccc(C(F)(F)F)cc2)c1)c1ccncc1 [Compound 11] | 144 ± 4.18 µM | 80.1 ± 4.59 µM | 245 ± 5.79 µM |  | 
18 |  | COc1ccc(C=O)cc1OS(=O)(=O)c1ccc(C(F)(F)F)cc1 [Compound 6] | 17.8 ± 0.53 µM | 16 ± 1.71 µM | 91 ± 2.26 µM |  | 
19 |  | N.N.[Cl][Pt][Cl] [cisplatin, reference compound] |  |  |  | 26.7 ± 2.78 µM | 8.8 ± 0.51 µM
